# Source: patent publication US6380396B1, “Quaternary ammonium compounds” (Pfizer Inc., priority 1997, dated 2002)
# Experiments:
# [1] = molecular target: T1, human NK2 receptor (Homo sapiens, UniProt P21452); assay: competition with [3H]-NKA for binding to membranes from Chinese hamster ovary cells expressing the cloned receptor; conditions: CHO cell membranes, 90 min, 25° C.
# T1 construct: expressed in transfected cells; host or cells: Chinese hamster ovary cells (membranes)
# T1 sequence (P21452 1-398): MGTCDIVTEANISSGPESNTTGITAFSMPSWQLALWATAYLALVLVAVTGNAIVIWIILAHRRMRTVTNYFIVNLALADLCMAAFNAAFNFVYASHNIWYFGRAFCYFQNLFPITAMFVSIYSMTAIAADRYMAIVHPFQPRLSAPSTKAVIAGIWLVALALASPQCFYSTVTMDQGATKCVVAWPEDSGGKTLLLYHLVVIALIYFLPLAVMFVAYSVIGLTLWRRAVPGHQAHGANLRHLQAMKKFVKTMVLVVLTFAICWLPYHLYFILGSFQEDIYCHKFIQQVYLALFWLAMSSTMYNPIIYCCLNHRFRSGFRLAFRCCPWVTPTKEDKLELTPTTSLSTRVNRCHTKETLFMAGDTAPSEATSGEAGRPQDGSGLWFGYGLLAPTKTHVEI
# Experimental: The affinity of the compounds of formula (I) for the human NK2 receptor can be determined in vitro by determining their ability to compete with [^3H]-NKA (neurokinin A) for binding to membranes prepared from Chinese hamster ovary cells expressing the cloned human NK2 receptor. In this method, washed Chinese hamster ovary cell membranes are prepared as described for the previous method where IM9 cells are used instead. The membranes are incubated (90 min, 25° C.) with [^3H]-NKA and with a range of concentrations of the test compound. Non-specific binding is determined in the presence of 10 μM NKA.
# [2] = molecular target: T2, human NK1 receptor (Homo sapiens, UniProt P25103); assay: inhibition of [3H]-Substance P binding to membranes from human IM9 cell line
# T2 construct: membranes prepared from the human IM9 cell line expressing the human NK1 receptor; endogenous in cells; host or cells: human IM9 cell line (membranes)
# T2 sequence (P25103 whole entry): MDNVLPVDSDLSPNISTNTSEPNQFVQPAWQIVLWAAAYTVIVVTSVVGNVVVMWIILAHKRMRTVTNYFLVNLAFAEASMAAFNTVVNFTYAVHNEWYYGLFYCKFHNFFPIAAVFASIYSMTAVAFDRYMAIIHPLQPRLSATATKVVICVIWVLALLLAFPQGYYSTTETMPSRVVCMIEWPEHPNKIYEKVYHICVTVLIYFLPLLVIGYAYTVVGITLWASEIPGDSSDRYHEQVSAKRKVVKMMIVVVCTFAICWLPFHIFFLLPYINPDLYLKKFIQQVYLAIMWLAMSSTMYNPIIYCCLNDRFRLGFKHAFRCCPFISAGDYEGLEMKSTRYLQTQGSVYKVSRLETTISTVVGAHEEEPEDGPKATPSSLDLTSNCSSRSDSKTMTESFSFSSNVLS
# Text: The affinity of the compounds of the formula (I) for the human NK1 receptor can be determined in vitro by determining their ability to inhibit [^3H]-Substance P binding to membranes prepared from the human IM9 cell line expressing the human NK1 receptor using a modification of the method described in McLean, S. et al, J. Pharm.Exp.Ther., 267, 472-9 (1993) in which whole cells were used.
Structure (SMILES),IC50 [1],IC50 [2]
"O=C(c1cccc2c1CCCC2)c1nccn1C[C@H](CC[N+]12CCC(c3ccccc3)(CC1)CC2)c1ccc(Cl)c(Cl)c1 [Example 19, 4-Phenyl-1-(3(R)-[3,4-dichlorophenyl]-4-[2-(1,2.3,4-tetrahydro-5-naphthoyl)imidazol-1-yl]butyl)quinuclidinium methanesulphonate]",24 nM,2 nM
"O=C(c1cccc2c1CCCC2)c1nccn1C[C@@H](CC[N+]12CCC(c3ccccc3)(CC1)CC2)c1ccc(Cl)c(Cl)c1 [Example 18, 4-Phenyl-1-(3(S)-[3,4-dichlorophenyl]-4-[2-(1,2,3,4-tetrahydro-5-naphthoyl)imidazol-1-yl]butyl)quinuclidinium methanesulphonate]",3 nM,123 nM
O=C(c1ccc2ccccc2c1)c1nccn1CC(CC[N+]12CCC(c3ccccc3)(CC1)CC2)c1ccc(Cl)c(Cl)c1 (stereo not shown) [Example 6],96 nM,9 nM
Cc1cccc(C(=O)c2nccn2CC(CC[N+]23CCC(c4ccccc4)(CC2)CC3)c2ccc(Cl)c(Cl)c2)c1C (stereo not shown) [Example 2],4 nM,0.6 nM
O=C(c1cccc2c1OCC2)c1nccn1CC(CC[N+]12CCC(c3ccccc3)(CC1)CC2)c1ccc(Cl)c(Cl)c1 (stereo not shown) [Example 5],11 nM,8 nM
